Reference: ChEMBL document CHEMBL4602673, “Insights into Protein-Ligand Interactions in Integrin Complexes: Advances in Structure Determinations” (J Med Chem, 2020)
pEC50, pIC50, pKd, pKi: −log10 of the molar value. Bridge positions count the residues as written; N and C are the ends. Square brackets hold non-standard residues; d marks the D form. Peptide text beside a SMILES is read from it. hArg = N=C(N)NCCCC[C@H](N)C(=O)O; Mpa = O=C(O)CCS

How the values were obtained:
[1] = biological target: T1, Integrin alpha-L/beta-2 (LFA-1) (Homo sapiens, UniProt P05107+P20701); assay: Binding affinity to human lymphocyte integrin alphaL beta2 (Cys125 to Gly311residues) expressed in Escherichia coli XL-1B cells by isothermal titration calorimetry
T1 sequence (P20701 whole entry): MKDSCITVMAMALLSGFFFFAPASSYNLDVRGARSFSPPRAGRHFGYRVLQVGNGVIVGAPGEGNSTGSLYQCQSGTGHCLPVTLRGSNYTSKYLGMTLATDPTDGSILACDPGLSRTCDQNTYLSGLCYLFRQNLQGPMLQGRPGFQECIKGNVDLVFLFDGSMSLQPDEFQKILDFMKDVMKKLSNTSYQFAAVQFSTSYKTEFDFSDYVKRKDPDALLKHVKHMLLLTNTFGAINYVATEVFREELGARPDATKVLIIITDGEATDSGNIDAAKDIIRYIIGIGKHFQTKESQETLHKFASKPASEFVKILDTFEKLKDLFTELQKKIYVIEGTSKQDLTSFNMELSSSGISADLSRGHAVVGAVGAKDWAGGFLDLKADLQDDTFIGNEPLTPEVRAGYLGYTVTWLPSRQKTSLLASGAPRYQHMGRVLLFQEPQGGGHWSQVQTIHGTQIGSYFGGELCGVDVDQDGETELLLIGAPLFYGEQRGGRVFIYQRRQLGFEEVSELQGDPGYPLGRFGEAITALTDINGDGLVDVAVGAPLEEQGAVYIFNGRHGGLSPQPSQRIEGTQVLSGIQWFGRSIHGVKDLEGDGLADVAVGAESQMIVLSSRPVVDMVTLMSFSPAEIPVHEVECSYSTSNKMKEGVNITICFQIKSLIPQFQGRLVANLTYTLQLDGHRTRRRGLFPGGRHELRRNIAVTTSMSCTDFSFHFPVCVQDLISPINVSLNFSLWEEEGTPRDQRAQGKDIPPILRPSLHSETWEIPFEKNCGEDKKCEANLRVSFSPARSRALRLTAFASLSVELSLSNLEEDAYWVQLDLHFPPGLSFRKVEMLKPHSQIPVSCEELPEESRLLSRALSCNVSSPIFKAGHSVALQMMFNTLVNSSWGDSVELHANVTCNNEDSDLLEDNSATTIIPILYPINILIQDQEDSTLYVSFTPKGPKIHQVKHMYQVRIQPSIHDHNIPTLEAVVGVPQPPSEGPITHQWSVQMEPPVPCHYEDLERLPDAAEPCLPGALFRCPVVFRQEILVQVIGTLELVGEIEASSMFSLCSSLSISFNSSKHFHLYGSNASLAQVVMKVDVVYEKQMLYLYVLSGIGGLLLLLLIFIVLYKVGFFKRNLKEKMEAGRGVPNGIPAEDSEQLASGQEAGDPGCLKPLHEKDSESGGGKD
T1 sequence (P05107 whole entry): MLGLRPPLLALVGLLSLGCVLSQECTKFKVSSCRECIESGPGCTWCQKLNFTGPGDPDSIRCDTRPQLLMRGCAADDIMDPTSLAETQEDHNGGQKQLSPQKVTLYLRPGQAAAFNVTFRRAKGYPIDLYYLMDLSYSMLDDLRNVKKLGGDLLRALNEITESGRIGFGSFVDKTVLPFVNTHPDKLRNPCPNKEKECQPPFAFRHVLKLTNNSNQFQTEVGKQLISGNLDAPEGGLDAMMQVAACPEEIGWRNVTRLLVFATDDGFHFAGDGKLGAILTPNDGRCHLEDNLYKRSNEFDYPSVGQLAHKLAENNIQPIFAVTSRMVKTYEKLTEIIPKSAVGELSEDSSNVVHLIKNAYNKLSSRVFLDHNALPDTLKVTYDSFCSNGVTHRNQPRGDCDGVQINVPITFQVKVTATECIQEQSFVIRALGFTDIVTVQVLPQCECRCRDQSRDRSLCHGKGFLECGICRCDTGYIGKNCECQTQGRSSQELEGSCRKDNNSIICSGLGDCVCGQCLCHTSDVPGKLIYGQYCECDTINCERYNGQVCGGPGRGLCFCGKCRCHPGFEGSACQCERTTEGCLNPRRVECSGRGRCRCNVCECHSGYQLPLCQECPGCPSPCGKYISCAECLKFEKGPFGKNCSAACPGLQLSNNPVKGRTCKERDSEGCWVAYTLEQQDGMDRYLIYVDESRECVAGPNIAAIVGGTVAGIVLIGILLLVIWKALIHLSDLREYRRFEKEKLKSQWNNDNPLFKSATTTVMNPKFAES

[2] = biological target: T2, Integrin alpha-V/beta-3 (Homo sapiens, UniProt P05106+P06756); assay: Inhibition of human integrin alphavbeta3 expressed in HEK293 cells assessed as reduction in cell adhesion to fibrinogen preincubated for 20 mins followed by phosphatase substrate addition and measured after 1 hr by spectrophotometry; assay type: cell-based
T2 sequence (P05106 27-788 limits assumed): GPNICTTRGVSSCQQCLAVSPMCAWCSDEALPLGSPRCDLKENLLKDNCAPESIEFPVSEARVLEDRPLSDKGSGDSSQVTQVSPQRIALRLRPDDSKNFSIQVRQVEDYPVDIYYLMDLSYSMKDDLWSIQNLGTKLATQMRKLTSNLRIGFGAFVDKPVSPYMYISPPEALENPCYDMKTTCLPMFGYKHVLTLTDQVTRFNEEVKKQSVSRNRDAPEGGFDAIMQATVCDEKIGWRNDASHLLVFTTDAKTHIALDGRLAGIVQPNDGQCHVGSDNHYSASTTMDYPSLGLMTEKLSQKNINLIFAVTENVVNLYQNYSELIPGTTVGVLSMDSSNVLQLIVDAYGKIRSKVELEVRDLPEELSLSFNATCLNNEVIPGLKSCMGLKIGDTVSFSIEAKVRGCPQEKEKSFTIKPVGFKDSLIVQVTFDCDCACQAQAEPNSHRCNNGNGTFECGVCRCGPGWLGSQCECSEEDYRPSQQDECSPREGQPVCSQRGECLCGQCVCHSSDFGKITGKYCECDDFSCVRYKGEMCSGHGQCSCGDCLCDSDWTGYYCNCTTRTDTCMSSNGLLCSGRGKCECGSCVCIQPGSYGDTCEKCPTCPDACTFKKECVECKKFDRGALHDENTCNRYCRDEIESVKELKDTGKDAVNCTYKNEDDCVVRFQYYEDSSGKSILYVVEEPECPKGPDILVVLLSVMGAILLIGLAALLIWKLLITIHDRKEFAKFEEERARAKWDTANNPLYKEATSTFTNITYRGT
T2 sequence (P06756 31-889 limits assumed): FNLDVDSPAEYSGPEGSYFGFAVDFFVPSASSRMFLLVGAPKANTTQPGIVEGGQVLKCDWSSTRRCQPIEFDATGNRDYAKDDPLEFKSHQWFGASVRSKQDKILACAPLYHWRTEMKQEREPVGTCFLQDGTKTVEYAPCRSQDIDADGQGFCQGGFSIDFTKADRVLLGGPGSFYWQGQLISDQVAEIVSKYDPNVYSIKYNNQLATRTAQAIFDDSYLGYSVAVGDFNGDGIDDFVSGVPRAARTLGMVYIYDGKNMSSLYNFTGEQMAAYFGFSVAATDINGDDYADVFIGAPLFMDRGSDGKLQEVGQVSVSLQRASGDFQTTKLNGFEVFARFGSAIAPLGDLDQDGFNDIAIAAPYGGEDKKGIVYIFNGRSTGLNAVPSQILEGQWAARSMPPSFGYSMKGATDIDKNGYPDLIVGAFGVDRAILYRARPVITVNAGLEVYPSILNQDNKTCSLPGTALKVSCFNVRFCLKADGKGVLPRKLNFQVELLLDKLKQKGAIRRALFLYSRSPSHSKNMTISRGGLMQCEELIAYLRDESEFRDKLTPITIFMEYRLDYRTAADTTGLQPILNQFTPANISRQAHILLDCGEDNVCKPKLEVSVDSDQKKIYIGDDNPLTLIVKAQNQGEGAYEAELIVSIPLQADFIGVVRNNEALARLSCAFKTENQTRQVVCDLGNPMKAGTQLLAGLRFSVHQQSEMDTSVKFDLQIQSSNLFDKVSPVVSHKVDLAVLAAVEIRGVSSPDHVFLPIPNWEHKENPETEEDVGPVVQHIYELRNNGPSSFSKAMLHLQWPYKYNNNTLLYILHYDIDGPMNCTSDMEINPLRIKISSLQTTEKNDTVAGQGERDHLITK
T2 sequence (P06756 891-1048 limits assumed): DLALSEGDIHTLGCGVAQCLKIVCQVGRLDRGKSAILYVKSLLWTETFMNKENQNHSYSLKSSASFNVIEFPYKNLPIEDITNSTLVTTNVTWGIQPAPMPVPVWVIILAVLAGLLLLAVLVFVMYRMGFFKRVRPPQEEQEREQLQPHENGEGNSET

[3] = biological target: Integrin alpha-4/beta-1 (Homo sapiens, UniProt P05556+P13612); assay: Binding affinity to human integrin alpha4beta1 incubated for 6 hrs by radioligand binding assay; assay type: protein-complex assay
[4] = biological target: Integrin alpha2/beta1 (Homo sapiens, UniProt P05556+P17301); assay: Inhibition of human alpha2 beta1 expressed in CHO cells assessed as reduction in cell adhesion to collagen type 1 incubated for 5 mins by DiOC6 dye based fluorescence microscopy
[5] = biological target: T1, Integrin alpha-L/beta-2 (LFA-1); assay: Inhibition of human integrin alphaL beta2 assessed as reduction in integrin alphaL beta2/ICAM1 protein-protein interaction by ELISA; assay type: protein-complex assay
[6] = biological target: Integrin alpha-IIb/beta-3 (Homo sapiens, UniProt P05106+P08514); assay: Inhibition of FITC-dodecapeptide binding to human integrin alpha2b beta3 receptor stably expressed in CHO Lec.3.2.8.1 cells by fluorescence anisotropy; assay type: cell-based
[7] = biological target: Integrin alpha-V/beta-1 (Homo sapiens, UniProt P05556+P06756); assay: Displacement of [3H] C8 from human integrin alphavbeta1 incubated for 6 hrs by competition binding assay; assay type: protein-complex assay
Integrin alpha-V/beta-1, sequence (P05556 21-798 limits assumed): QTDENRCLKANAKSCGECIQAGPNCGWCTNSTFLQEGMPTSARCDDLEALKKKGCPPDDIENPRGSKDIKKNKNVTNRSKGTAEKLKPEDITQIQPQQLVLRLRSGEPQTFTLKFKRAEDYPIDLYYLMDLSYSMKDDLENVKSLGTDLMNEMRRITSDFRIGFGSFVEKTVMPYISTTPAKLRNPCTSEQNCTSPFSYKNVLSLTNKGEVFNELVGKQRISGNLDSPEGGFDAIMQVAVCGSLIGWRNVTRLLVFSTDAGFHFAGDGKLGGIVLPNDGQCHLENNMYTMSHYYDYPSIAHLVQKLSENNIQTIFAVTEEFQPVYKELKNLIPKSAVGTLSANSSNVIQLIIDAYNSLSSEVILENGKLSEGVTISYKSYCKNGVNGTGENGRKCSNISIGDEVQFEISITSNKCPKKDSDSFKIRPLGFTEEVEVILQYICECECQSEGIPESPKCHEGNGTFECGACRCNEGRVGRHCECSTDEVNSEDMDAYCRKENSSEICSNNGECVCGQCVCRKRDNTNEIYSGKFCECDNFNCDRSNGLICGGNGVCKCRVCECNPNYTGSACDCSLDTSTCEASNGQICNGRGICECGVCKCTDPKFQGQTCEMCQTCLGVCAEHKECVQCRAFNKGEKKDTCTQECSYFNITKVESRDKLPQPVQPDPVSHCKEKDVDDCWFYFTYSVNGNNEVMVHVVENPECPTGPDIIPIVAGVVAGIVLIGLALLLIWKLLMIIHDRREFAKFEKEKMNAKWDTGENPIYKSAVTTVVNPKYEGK
Integrin alpha-V/beta-1, sequence (P06756 31-889 limits assumed): as the sequence (P06756 31-889 limits assumed) above
Integrin alpha-V/beta-1, sequence (P06756 891-1048 limits assumed): as the sequence (P06756 891-1048 limits assumed) above

[8] = biological target: T2, Integrin alpha-V/beta-3; assay: Inhibition of human integrin alphavbeta3 (unknown origin); assay type: protein-complex assay

SMILES: CCOc1ccccc1Sc1ccc(-c2ccnc(N3CCN(C(C)=O)CC3)c2)cc1[N+](=O)[O-]
- pKd [1]: 7.74

SMILES: COc1ccc([C@H](CC(=O)O)N2CCN(CCCc3ccc4c(n3)NCCC4)C2=O)cn1
- pIC50 [2]: 8.52

SMILES: N=C(N)NCCCCC(=O)Nc1ccc(C[C@H](NC(=O)[C@@H]2CCCN2S(=O)(=O)c2ccccc2)C(=O)O)cc1
- pKd [3]: 9.10

SMILES: CN(c1ccc(NC(=O)Nc2ccccc2)cc1)S(=O)(=O)c1cnn(-c2ccc(F)cc2)c1
- pEC50 [4]: 6.89

SMILES: CC[C@H](C)C(=O)OC1C[C@@H](C)C=C2C=C[C@H](C)[C@H](CC[C@@H]3C[C@H](CC(=O)NC)N(Cc4ccc(O)c(OC)c4)C(=O)O3)[C@H]21 (some centres not stated)
- pIC50 [5]: 7.30

SMILES: N=C(N)c1ccc(C(=O)NCCC(=O)N[C@@H](CC(=O)O)C(=O)NC(Cc2ccccc2)C(=O)O)cc1 (some centres not stated)
- pIC50 [6]: 9.22

SMILES: O=C(CCCCc1ccc2c(n1)NCCC2)NCC[C@H](NC(=O)c1nc2ccccc2s1)C(=O)O
- pIC50 [2]: 7.60

SMILES: CC[C@H](C)C(=O)O[C@H]1C[C@@H](C)C=C2C=C[C@H](C)[C@H](CCC3C[C@@H](O)CC(=O)N3Cc3ccc4c(CO)c(OC)ccc4c3)[C@H]21 (some centres not stated)
- pIC50 [5]: 6.70

SMILES: CN(c1ccc(NC(=O)Nc2ccccc2)cc1)S(=O)(=O)c1ccc(-c2ccnn2C)s1
- pEC50 [4]: 6.80

SMILES: CCNC(=O)Nc1cnnc(-c2ccc(C[C@H](NC(=O)c3c(Cl)cccc3Cl)C(=O)O)cc2)c1
- pKi [7]: 9.78

SMILES: O=C(NC[C@H](NS(=O)(=O)c1cccnc1)C(=O)O)c1cc2cc(CCC3CCNCC3)sc2s1
- pIC50 [8]: 7.72 to 8.10

SMILES: N=C(N)NCCCC[C@@H]1NC(=O)CCSSC[C@@H](C(N)=O)NC(=O)[C@@H]2CCCN2C(=O)[C@H](Cc2c[nH]c3ccccc23)NC(=O)[C@H](CC(=O)O)NC(=O)CNC1=O [EPTIFIBATIDE] ([Mpa][hArg]GDWPC-NH2; disulfide 1-7)
- pKd [8]: 6.92
